# Source: patent publication US12121606B2, “Methods and compositions for improving skin” (L'OREAL, priority 2021, dated 2024)
# System: in vitro skin samples (EPISKIN)
# Experiment: In vitro skin samples after fractional laser procedure, wound healing by OCT imaging
# Format: cell-based
# Conditions: application after the fractional laser procedure
# Experimental: The benefits of applying the Composition 4 to skin after a procedure that reduces the barrier function of skin was evaluated in vitro using samples generated by the EPISKIN™ group. Composition 4 comprised 0.5 wt. % of acetyl trifluoromethylphenyl valylglycine and 2 wt. % ethanol with the remainder being water, with all weight percentages based on the total weight of the formulation. A comparative composition (Comparative Composition A) containing transforming growth factor alpha (“TGF-α”) was also evaluated as a comparison to the Composition 4.
# Specifically, a fractional laser procedure that is typical of laser resurfacing procedures was applied to the in vitro skin samples. The in vitro skin samples were characterized using non-invasive imaging analysis to determine the wound morphology of the in vitro skin samples. The kinetics and quantification of wound healing after the laser treatment was evaluated using optical coherence tomography (OCT). The optical measurements were performed at seven time points over the culture period. This was achieved using an OCT system produced by Thorlabs (Newton, N.J., USA) with an axial resolution of 8 μm.
# Composition 4 and Comparative Composition A were applied by adding 10 uL onto in vitro skin samples after the fractional laser procedure. […]
smiles,measurement,value
CC(=O)N(c1cccc(C(F)(F)F)c1)C(C(=O)NCC(=O)O)C(C)C (stereo not shown) [acetyl trifluoromethylphenyl valylglycine],regeneration of the epidermis,enhanced regeneration of the epidermis
